According to patent US20220265549A1, “PHARMACEUTICAL COMPOSITION COMPRISING ENSIFENTRINE” (VERONA PHARMA PLC, priority 2019, published 2022):

What was measured:
[1] = Particle size distribution of materials (laser diffraction); type: physicochemical; settings: volume particle size distribution
Text: Particle sizes are described herein by reference to the Dv50 value, which is the median particle size for a volume distribution. Thus, half the volume of the particles have diameters of less than the Dv50 value and half the volume of the particles have diameters of greater than the Dv50 value. This is a well-known manner in which to describe particle size distributions. The parameters of Dv10 and Dv90 may also be used to characterise a particle size distribution of a sample. 10% of the volume of particles have a diameter of less than the Dv10 value. 90% of the volume of the particles have a diameter of less than the Dv90 value.
The technique used to measure the Dv50 (and Dv10 and Dv90) values as stated herein is typically laser diffraction. For instance, the coarse lactose particles typically have a particle size distribution with a Dv50 value of from 40 μm to 80 μm as measured by laser diffraction and the fine lactose particles have a particle size distribution with a Dv50 value of from 5 μm to 10 μm as measured by laser diffraction.
The particle size distribution of low aqueous solubility materials, for instance the ensifentrine particles, may be as measured by laser diffraction using a wet powder dispersion system. For instance, the particle size distribution can be measured by laser diffraction using a Malvern Spraytec in conjunction with a wet dispersion cell. Typically, the instrument parameters for the Malvern Spraytec are as follows: • particle—standard opaque particle; • refractive index Particle—1.50; • refractive index (imaginary)—0.50; • density of particle—1.00; • refractive index of dispersant—1.33; • controller unit—1000 RPM; • measurement type—timed; • initial sampling time—30 s; • obscuration—20%-30%; • dispersant—1% Polysorbate 20 in deionised water.
The particle size distribution of materials soluble in water, for instance lactose particles, may be as measured by laser diffraction using a dry powder dispersion system. For instance, the particle size distribution can be measured by laser diffraction using a Malvern or Sympatec dry dispersion cell. […]

[2] = tested on: patients with COPD; test: Phase II clinical study, single dose part (FEV1); type: in vivo, human
Method: (§1) A 2-part, 37 patient, Phase II single and repeat dose clinical study with ensifentrine in patients with COPD was completed using DPI formulations 12, 13 and 14 (Table 6).
Ensifentrine doses of 0.15, 0.5, 1.5, and 3 mg provided dose-dependent improvements from baseline in peak Forced Expiratory Volume in one second (FEV1) (over 4 hours) of up to 333 mL compared with placebo (p<0.01 for 1.5 mg and 3 mg doses).

[3] = tested on: patients with COPD; test: Phase II clinical study, repeat dose crossover part (FEV1); type: in vivo, human; settings: for Improvement from baseline in peak FEV1 (over 4 hours) on Day 7 compared with placebo: DPI; for Improvement in morning trough FEV1 on Day 7 compared with placebo: twice daily over 7 days, dose not identified
Method: as §1
The second part of the study was a complete block crossover study using the same patients that were dosed in the first part of the study. Ensifentrine doses of 0.15 mg to 3 mg dosed twice daily over 7 days also provided dose-dependent, highly statistically significant and clinically meaningful improvements from baseline in peak FEV1 (over 4 hours) on Day 7 of 102, 175, 180, and 260 mL, respectively, compared with placebo (p≤0.0001 for all dose groups). The improvement in FEV1 was sustained over the 12 hour dosing interval as shown by clinically meaningful and statistically significant improvements in average FEV1 over 12 hours of up to 147 mL (p<0.05 for all dose groups) and in morning trough FEV1 on Day 7 of 98, 87, and 97 mL, respectively, compared with placebo (p≤0.001 for each dose).

COc1cc2c(cc1OC)-c1c/c(=N\c3c(C)cc(C)cc3C)n(CCNC(N)=O)c(=O)n1CC2 [Ensifentrine, 9,10-dimethoxy-2-(2,4,6-trimethylphenylimino)-3-(N-carbamoyl-2-aminoethyl)-3,4,6,7-tetrahydro-2H-pyrimido[6,1-a]isoquinolin-4-one]
Dv10 (μm) [1]: 0.5 μm | Dv50 (μm) [1]: 1.3 μm | Dv90 (μm) [1]: 3.6 μm | Improvement from baseline in peak FEV1 (over 4 hours) compared with placebo ([2]; single doses of 0.15, 0.5, 1.5 and 3 mg by DPI, maximum across doses): up to 333 mL | Bronchodilatory effect ([2]; single doses up to 3 mg by DPI, over 12 hours, COPD patients): rapid, dose-dependent, and statistically significant bronchodilatory effect | Improvement in average FEV1 over 12 hours ([3]; 0.15 mg to 3 mg twice daily over 7 days, maximum across doses): up to 147 mL | Improvement from baseline in peak FEV1 (over 4 hours) on Day 7 compared with placebo ([3]; 0.15 mg twice daily over 7 days): 102 mL | Improvement from baseline in peak FEV1 (over 4 hours) on Day 7 compared with placebo ([3]; 0.5 mg twice daily over 7 days): 175 mL | Improvement from baseline in peak FEV1 (over 4 hours) on Day 7 compared with placebo ([3]; 1.5 mg twice daily over 7 days): 180 mL | Improvement from baseline in peak FEV1 (over 4 hours) on Day 7 compared with placebo ([3]; 3 mg twice daily over 7 days): 260 mL | Improvement in morning trough FEV1 on Day 7 compared with placebo ([3]; first of three listed values): 98 mL | Improvement in morning trough FEV1 on Day 7 compared with placebo ([3]; second of three listed values): 87 mL | Improvement in morning trough FEV1 on Day 7 compared with placebo ([3]; third of three listed values): 97 mL
